Marks after values point to notes of the source that are not given here.
How the values were obtained:
[1] = test system: non-dialysis chronic kidney disease (CKD) patients with anemia; experiment: Study 1: Phase 2 study of compound A in non-dialysis CKD patients with anemia; format: in vivo, human
Description: The primary objectives of this study were to evaluate the efficacy and safety of the compound in the correction of anemia (i.e. increasing hemoglobin levels) in non-dialysis CKD patients. The study included six dosing cohorts of approximately 24 subjects each. […] Cohort A and cohort B both received a weight-adjusted dose of approximately 1 mg/kg, three times a week for 16 weeks; the dosing in cohort B was reduced to twice a week once anemia was corrected. Cohort C and cohort D received a fixed dose of 50 mg or 100 mg, respectively, three times a week, for 24 weeks. Cohort E received a weight-adjusted dose of approximately 1 mg/kg twice a week, reduced to once a week once anemia was corrected. Cohort F received a fixed dose of 70 mg, three times a week.
Total cholesterol and lipid panels were measured by standard procedures.
Total cholesterol was measured from all subjects in Study 1 or Study 2 as part of the chemistry panel at prespecified time points. […] Total cholesterol decreased initially with treatment, reached a plateau where it remained during treatment, and then returned to baseline after treatment ends.
Frozen serum samples, collected from subjects in Study 1 or Study 2, were selected for the lipid panel analysis based on the following criteria: 1) with matched baseline (D1W1) and; 2) at least one other time point. The complete lipid panel includes: total cholesterol (TC), HDL, LDL-measured, Triglycerides and VLDL (Calculated). Ratio of HDL/LDL or LDL/HDL were analyzed.
A total of n=9 subjects samples were selected and assayed for the complete lipid panel as described above. Subjects on this study protocol were not required to fast nor have any diet restrictions.

[2] = test system: subjects with end stage renal disease (ESRD); experiment: ESRD subjects switched from epoetin alfa to Compound A or continued on epoetin alfa; format: in vivo, human
[3] = test system: Cholesterol Biosynthesis Genes in the Mouse Liver; experiment: Microarray expression of cholesterol biosynthesis genes in mouse liver; format: in vivo; conditions: 90 mg/kg oral
Method in brief: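 Mouse livers taken 4 h or 8 h post-treatment; RNA from paired animals pooled and hybridized to mouse 430A 2.0 arrays, GC-RMA processed, outlier arrays removed by PCA. Values are fold-change versus timepoint-matched vehicle controls from the same study; below 1.0 means reduced liver RNA.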

cynomolgus monkeys = experiment: Cholesterol levels after repeated oral administration in monkey toxicity studies; format: in vivo, cynomolgus monkey
Description: During these studies monkeys were fasted prior to each blood collection. Plasma samples were then evaluated at pre-dose and at different time-points for levels of total cholesterol.

DIO mice = experiment: High cholesterol mouse model, diet induced obesity (DIO) mice; conditions: another study, 60 mg/kg three times a week for two weeks, n=10/group, FIG. 24
Description: Ten-week-old male apoE knockout mice (Jackson Laboratories, Bar Harbor, Me.) were fed a normal chow diet (0.02% cholesterol, 13.5% fat by weight; LabDiet). Ten-week-old male diet induced obese mice (DIO Mice, Jackson Laboratories, Bar Harbor, Me.) were fed a high fat diet (0.095% cholesterol, 60% fat by weight; ResearchDiets) starting at six-weeks-old. After 2 weeks of acclimatization, whole blood was collected for baseline measurement before administration of test reagents. All test reagents were administered orally by gavage needle three times a week for 2 weeks for the apoE mice, and three times a week for 4 weeks for the DIO mice. The animals were sacrificed at end of study. Whole blood was collected weekly in Heparin-tube by submandibular bleeding and isolated plasma was stored at −80° C. for measurement of total cholesterol.
DIO mice as described in Example 10 were used to test the effect of various compounds on cholesterol levels. Compound (60 mg/kg) or vehicle was administered to the mice (n=10/group) three times a week for four weeks. A statin compound (rosuvastatin) was also tested. Blood samples were collected at weekly and total cholesterol blood levels were tested.

[4] = six subjects with identical time points, FIG. 7
[5] = baseline, Compound A 3 cohorts n=74, Epoetin alfa n=22

Which “total cholesterol by baseline total cholesterol ≦200 or >200 mg/dL” value ([1]; Study 1, FIG. 5) does the source give for Cc1nc(C(=O)NCC(=O)O)c(O)c2ccc(Oc3ccccc3)cc12 [Compound A, [(4-Hydroxy-1-methyl-7-phenoxy-isoquinoline-3-carbonyl)-amino]-acetic acid] here?
Its value is “total cholesterol is reduced in each group”.

And the “total cholesterol over time” value ([1]; all subjects from all cohorts (n=144), during study treatment, FIG. 1)?
The value was “significant decrease in total cholesterol”.

What about the “LDL, lipid panel” value [1, 4] of the same molecule?
Its value is “reduce over the course of treatment”.

And the “total cholesterol, lipid panel” value [1, 4]?
The value was “reduce over the course of treatment”.

And the LDL cholesterol change ([2]; Mean (±SD), six weeks, Compound A orally three times a week (n=74) or continued epoetin alfa (n=22))?
The LDL cholesterol change was −25 (22)** mg/dL.

And the “Mean change in LDL-C, decrease” value ([2]; all cohorts, six weeks)?
Its value is 25 mg/dL.

What about the “Mean BL LDL Cholesterol” value [2, 5] of the same molecule?
The value was 101.71 mg/dL.

What about the “Mean BL Total Cholesterol” value [2, 5] of the same molecule?
The value was 171.11 mg/dL.

What about the “mean total cholesterol over the course of treatment” value ([2]; both groups stratified by BL total cholesterol ≦200 or >200 mg/dL, FIG. 16) of the same molecule?
The value was “reduction”.

And the “mean LDL-C over the course of treatment” value ([2]; both groups stratified by BL total cholesterol ≦200 or >200 mg/dL, FIG. 17)?
Its value is “reduction”.

What about the HDL-C ([2]; six weeks) of the same molecule?
Its HDL-C is “showed a decrease”.

And the “3-hydroxy-3-methylglutaryl-Coenzyme A reductase (Hmgcr) RNA expression” value ([3]; 4 h)?
Its value is 0.45 fold-change.

And the “3-hydroxy-3-methylglutaryl-Coenzyme A synthase 1 (Hmgcs1) RNA expression” value ([3]; 4 h)?
The value was 0.94 fold-change.

What about the “7-dehydrocholesterol reductase (Dhcr7) RNA expression” value ([3]; 4 h) of the same molecule?
Its value is 1.03 fold-change.

And the “NAD(P) dependent steroid dehydrogenase-like (Nsdhl) RNA expression” value ([3]; 4 h)?
Its value is 0.86 fold-change.

And the “acetyl-Coenzyme A acetyltransferase 2 (Acat2) RNA expression” value ([3]; 4 h)?
The value was 1.24 fold-change.

What about the “cytochrome P450, family 51 (Cyp51) RNA expression” value ([3]; 4 h) of the same molecule?
The value was 0.69 fold-change.

What about the “farnesyl diphosphate farnesyl transferase 1 (Fdft1) RNA expression” value ([3]; 4 h) of the same molecule?
Its value is 0.68 fold-change.

And the “farnesyl diphosphate synthetase (Fdps) RNA expression” value ([3]; 4 h)?
Its value is 0.87 fold-change.

What about the “isopentenyl-diphosphate delta isomerase (Idi1) RNA expression” value ([3]; 4 h) of the same molecule?
Its value is 0.73 fold-change.

What about the “lanosterol synthase (Lss) RNA expression” value ([3]; 4 h) of the same molecule?
The value was 0.74 fold-change.

And the “mevalonate (diphospho) decarboxylase (Mvd) RNA expression” value ([3]; 4 h)?
Its value is 0.68 fold-change.

And the “mevalonate kinase (Mvk) RNA expression” value ([3]; 4 h)?
The value was 1.00 fold-change.

And the “phosphomevalonate kinase (Pmvk) RNA expression” value ([3]; 4 h)?
The value was 1.27 fold-change.

What about the “squalene epoxidase (Sqle) RNA expression” value ([3]; 4 h) of the same molecule?
Its value is 0.61 fold-change.

What about the “sterol-C4-methyl oxidase-like (Sc4mol) RNA expression” value ([3]; 4 h) of the same molecule?
The value was 0.63 fold-change.

And the “sterol-C5-desaturase (fungal ERG3, delta-5-desaturase) homolog (S. cerevisae) (Sc5d) RNA expression” value ([3]; 4 h)?
Its value is 1.09 fold-change.

What about the “3-hydroxy-3-methylglutaryl-Coenzyme A reductase (Hmgcr) RNA expression” value ([3]; 8 h) of the same molecule?
Its value is 0.43 fold-change.

And the “3-hydroxy-3-methylglutaryl-Coenzyme A synthase 1 (Hmgcs1) RNA expression” value ([3]; 8 h)?
Its value is 0.38 fold-change.

And the “7-dehydrocholesterol reductase (Dhcr7) RNA expression” value ([3]; 8 h)?
The value was 0.61 fold-change.

What about the “NAD(P) dependent steroid dehydrogenase-like (Nsdhl) RNA expression” value ([3]; 8 h) of the same molecule?
The value was 0.62 fold-change.

What about the “acetyl-Coenzyme A acetyltransferase 2 (Acat2) RNA expression” value ([3]; 8 h) of the same molecule?
Its value is 0.50 fold-change.

What about the “cytochrome P450, family 51 (Cyp51) RNA expression” value ([3]; 8 h) of the same molecule?
The value was 0.45 fold-change.

What about the “farnesyl diphosphate farnesyl transferase 1 (Fdft1) RNA expression” value ([3]; 8 h) of the same molecule?
Its value is 0.43 fold-change.

What about the “farnesyl diphosphate synthetase (Fdps) RNA expression” value ([3]; 8 h) of the same molecule?
Its value is 0.36 fold-change.

What about the “isopentenyl-diphosphate delta isomerase (Idi1) RNA expression” value ([3]; 8 h) of the same molecule?
Its value is 0.51 fold-change.

And the “lanosterol synthase (Lss) RNA expression” value ([3]; 8 h)?
The value was 0.44 fold-change.

What about the “mevalonate (diphospho) decarboxylase (Mvd) RNA expression” value ([3]; 8 h) of the same molecule?
Its value is 0.37 fold-change.

And the “mevalonate kinase (Mvk) RNA expression” value ([3]; 8 h)?
The value was 0.53 fold-change.

What about the “phosphomevalonate kinase (Pmvk) RNA expression” value ([3]; 8 h) of the same molecule?
Its value is 0.63 fold-change.

What about the “squalene epoxidase (Sqle) RNA expression” value ([3]; 8 h) of the same molecule?
Its value is 0.43 fold-change.

What about the “sterol-C4-methyl oxidase-like (Sc4mol) RNA expression” value ([3]; 8 h) of the same molecule?
Its value is 0.46 fold-change.

And the “sterol-C5-desaturase (fungal ERG3, delta-5-desaturase) homolog (S. cerevisae) (Sc5d) RNA expression” value ([3]; 8 h)?
The value was 0.38 fold-change.

And the total cholesterol levels (cynomolgus monkeys; 22-week study, intermittent oral dosing 1, 10, 30 and 40 mg/kg, day 28 to day 152)?
Its total cholesterol levels is “dose-dependent decrease in cholesterol levels”.

What about the total cholesterol levels (cynomolgus monkeys; 22-week study, intermittent oral dosing 1, 10, 30 and 40 mg/kg, day 28 to day 152, listed as compound A) of the same molecule?
Its total cholesterol levels is “dose dependent decrease in total cholesterol”.

And the total cholesterol levels (cynomolgus monkeys; 28-Day study, daily oral dosing 1, 10 and 30 mg/kg, day 28)?
Its total cholesterol levels is “dose-dependent decrease in cholesterol levels”.

What about the total cholesterol levels (cynomolgus monkeys; 28-Day study, daily oral dosing 1, 10 and 30 mg/kg, day 28, listed as compound A) of the same molecule?
Its total cholesterol levels is “dose dependent decrease in total cholesterol”.

What about the cholesterol (cynomolgus monkeys; additional monkey study, up to one year) of the same molecule?
Its cholesterol is “decreases in cholesterol were observed and maintained for up to one year”.

And the “total cholesterol levels compared to vehicle treated” value (DIO mice)?
Its value is “statistically significant decrease in total cholesterol levels”.

From US20150018384A1, “TREATMENT FOR HIGH CHOLESTEROL” (FibroGen, Inc., priority 2012, published 2015)
